Legend:
h-NTPDase1 = target: T1, h-NTPDase1 (Homo sapiens, UniProt P49961); parameters: method as in Lecka et al., 2013; details: selective inhibitor of h-NTPDase1; ref Lecka et al., 2013; cited from earlier work
T1 construct: made in house; host or cells: COS-7 cells, transient transfection; crude protein extract after sonication
T1 sequence (P49961 1-510): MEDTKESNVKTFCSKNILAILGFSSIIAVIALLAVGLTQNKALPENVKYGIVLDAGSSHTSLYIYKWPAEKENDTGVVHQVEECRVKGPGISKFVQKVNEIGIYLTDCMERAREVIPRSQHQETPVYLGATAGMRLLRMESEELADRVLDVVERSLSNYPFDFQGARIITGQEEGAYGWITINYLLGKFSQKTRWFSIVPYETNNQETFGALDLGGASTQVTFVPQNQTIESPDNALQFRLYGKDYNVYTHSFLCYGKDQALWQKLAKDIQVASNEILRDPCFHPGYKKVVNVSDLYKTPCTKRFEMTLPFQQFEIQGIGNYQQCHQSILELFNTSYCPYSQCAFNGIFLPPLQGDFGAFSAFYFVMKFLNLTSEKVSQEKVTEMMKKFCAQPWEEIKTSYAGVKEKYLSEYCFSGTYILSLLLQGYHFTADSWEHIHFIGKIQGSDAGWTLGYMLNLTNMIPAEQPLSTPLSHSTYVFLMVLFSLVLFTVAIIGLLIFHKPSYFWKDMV

mice pancreatic islets = assay: Glucose stimulated insulin secretion in isolated mice islets (ELISA); format: cell-based, BALB/c mice; details: 16.7 mM glucose, compound 200 µM, 1 h, 37°C
Protocol: Six to eight week old BALB/c mice, weighing 30–40 g, were used in the study. These mice were obtained from the animal house of COMSATS University Islamabad, Abbottabad Campus and placed under standard temperature (25 ± 2°C) and humidity (50–55%) conditions with an alternate 12-h light/dark cycle. All the experimental animals were provided with a continuous supply of food and water. The animals were handled according to internationally accepted guidelines of animal care and use. Moreover, this study was reviewed and approved by Research Ethics Committee, Department of Pharmacy, COMSATS University Islamabad, Abbottabad Campus. (Protocol number: PHM.Eth./CS-M01-020-1609)
The islets were isolated from mice pancreas as previously described, by a process involving collagenase digestion ([Hameed et al., 2018]). Briefly, mice were anesthetized with sodium thiopental (30 mg kg) and sacrificed by cervical dislocation to block the flow of blood. Immediately, mice were transferred to biological hood and their abdominal cavity was opened completely by making an incision on abdomen. In order to stop the bile flow toward duodenum, ampulla was located and clamped under dissection microscope. Then, distention of pancreas was carried out by injecting 3 ml of collagenase solution (1 mg/ml) through common bile duct. The distended pancreas was removed as a whole, transferred to a 50 ml tube and digested in collagenase solution at 37°C. After 15 min, digestion was stopped by placing the tube on ice and 20 ml of Hank’s Balanced Salt Solution (HBSS) was added to it. Thus the digested islets were washed with HBSS (two to three times) by centrifugation (1,000 rpm) for 1 min at 4°C. Finally, islets were purified by passing through a cell strainer (70 µm) and isolated manually (by hand picking) under stereomicroscope (Euromex, Arnhem, Netherlands). All the purification and isolation procedures were carried out in HBSS, containing no magnesium, calcium and phenol red.
Krebs-Ringer bicarbonate buffer (KRBB) was used as an incubation medium for islets and was composed of NaCl (118 mM), KCl (4.7 mM), CaCl2 (1.9 mM), MgSO4 (1.2 mM), NaHCO3 (25 mM), 4-(2-hydroxyethyl)-1-piperazineethanesulfonic acid (HEPES, 10 mM) and bovine serum albumin (0.1%). The pH of KRBB was maintained at 7.4. The isolated islets were size-matched and pre-incubated (3 islets/tube) for 45 min at 37°C in KRBB, supplemented with 3 mM glucose. Thereafter, incubation medium was replaced with fresh KRBB (containing 16.7 mM glucose) and islets were incubated for 60 min at 37°C with or without test substance(s). After incubation, supernatant was collected and stored at −40°C until further use. Finally, collected samples were properly diluted and insulin secretion was estimated with ultra-sensitive mouse insulin ELISA kit (Crystal Chem Inc., Downers Grove, United States) according to the manufacturer’s instructions. The absorbance was measured at 450 nm and insulin secretion was normalized for number of islets used. ([Hameed et al., 2018]).

Compound: CCCCSc1nc2c(N)ncnc2n1[C@@H]1O[C@H](COP(=O)(O)OP(=O)(O)OP(=O)(O)O)[C@@H](O)[C@H]1O [8-Bus-ATP]
- Ki (h-NTPDase1): 800 ± 200 nM

Compound: O=C1Nc2ccccc2C1=O [isatin]
- Effect on glucose stimulated insulin secretion (mice pancreatic islets): Neither suramin nor isatin had any significant effect

Source: article PMC7734281, “Functionalized Oxoindolin Hydrazine Carbothioamide Derivatives as Highly Potent Inhibitors of Nucleoside Triphosphate Diphosphohydrolases” (Frontiers in Pharmacology, 2020)
